Results published in patent US20260193293A1, “PEPTIDES CAPABLE OF INHIBITING PROTEIN-PROTEIN INTERACTIONS AT GABAB1A SUBUNIT AND USES THEREOF” (UNIVERSITY OF COPENHAGEN, priority 2022, published 2026).
Where two headings read alike, the source gives them in different places. Values belong to the compound of their own block, whether it stands above or below them. Non-standard residues stand in square brackets, D forms with d. Residues, ends and D or L forms follow the SMILES beside them. Sar = CNCC(=O)O

Biological target: Sushi domains (SD1/2) protein
Assay: Fluorescence polarization (FP) competition assay with AJAP-1probe, calculated Ki
Format: binding
How it was run: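 Competition against 25 nM TAMRA-labelled peptide probe binding SD1/2, in PBS pH 7.4 with 1% BSA at rt, read at 530/580 nm. IC50 from sigmoidal dose-response fits, at least triplicate; Ki calculated from IC50 using probe Kd from saturation binding.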

[1] = Table 1, affinity maturation, mean ± SEM, n ≥ 3, read-out: Ki
[2] = Table 13, peptides for affinity maturation, read-out: Ki (nM) mean ± SEM
[3] = CPP tagged peptides overview, SD1/2 binding affinity, mean ± SEM, n ≥ 3, read-out: Ki
[4] = Table 14, CPPs tagged peptides, read-out: Ki (nM) mean ± SEM
[5] = Table 6, elongation and truncation scan of PIANP binding epitope, read-out: Ki (nM) mean ± SEM
[6] = Table 11, deep mutational scanning validation variants of AJAP-1WT, read-out: Ki (nM) mean ± SEM
[7] = Table 12, deep mutational scanning validation variants of PIANPWT, read-out: Ki (nM) mean ± SEM

- Ki [1]: 95 ± 5 nM
- Ki [2]: 95 ± 5 nM
SMILES: CC[C@H](C)[C@H](NC(=O)[C@H](Cc1ccccc1)NC(=O)[C@H](CCC(=O)O)NC(=O)[C@@H](NC(=O)[C@H](CCC(=O)O)NC(C)=O)[C@@H](C)O)C(=O)N[C@@H](C)C(=O)N[C@@H](Cc1c[nH]c2ccccc12)C(=O)N[C@@H](Cc1ccc(O)cc1)C(=O)NCC(=O)N[C@@H](C)C(=O)N[C@@H](CC(=O)O)C(=O)N[C@H](C(=O)N[C@@H](CC(=O)O)C(N)=O)[C@@H](C)O [Peptide 37] (Ac-ETEFIAWYGADTD-NH2)

- Ki [3]: 123 ± 4 nM
- Ki [4]: 123 ± 4 nM
SMILES: CC[C@H](C)[C@H](NC(=O)[C@H](Cc1c[nH]c2ccccc12)NC(=O)[C@H](CC(=O)O)NC(=O)[C@H](CC(=O)O)NC(=O)[C@H](CC(=O)O)NC(=O)[C@H](CCC(=O)O)NC(C)=O)C(=O)N[C@@H](CC(=O)O)C(=O)N[C@@H](Cc1c[nH]c2ccccc12)C(=O)NCC(=O)N1CCC[C@H]1C(=O)N[C@H](C(=O)N[C@@H](CO)C(=O)N[C@@H](CC(=O)O)C(=O)N[C@@H](CC(=O)O)C(=O)N[C@@H](CC(=O)O)C(=O)N[C@@H](CCCNC(=N)N)C(=O)N[C@@H](CCCNC(=N)N)C(=O)N[C@@H](CCCNC(=N)N)C(=O)N[C@@H](CCCNC(=N)N)C(=O)N[C@@H](CCCNC(=N)N)C(=O)N[C@@H](CCCNC(=N)N)C(=O)N[C@@H](CCCNC(=N)N)C(=O)N[C@@H](CCCNC(=N)N)C(N)=O)[C@@H](C)O [Peptide 17-R8] (Ac-EDDDWIDWGPTSDDDRRRRRRRR-NH2)

- Ki [5]: 597 ± 7 nM
SMILES: CC[C@H](C)[C@H](NC(=O)[C@H](C)NC(=O)[C@H](Cc1c[nH]c2ccccc12)NC(=O)[C@@H]1CCCN1C(C)=O)C(=O)N[C@H](C(=O)N[C@@H](Cc1c[nH]c2ccccc12)C(=O)NCC(=O)N1CCC[C@H]1C(=O)N[C@H](C(=O)N[C@H](C(=O)N[C@@H](CO)C(=O)N[C@@H](CCCNC(=N)N)C(=O)N[C@@H](CCC(=O)O)C(=O)N[C@@H](CC(=O)O)C(=O)NCC(=O)NCC(=O)N[C@@H](CC(=O)O)C(=O)N1CCC[C@H]1C(N)=O)C(C)C)[C@@H](C)O)C(C)C (Ac-PWAIVWGPTVSREDGGDP-NH2)

- Ki (AJAP-1probe, read-out: Ki): 5000 nM
- Ki (Table 3, SPOT hit validation and previously reported peptides, read-out: Ki (nM) mean ± SEM): 5030 ± 171 nM
SMILES: CC(=O)N[C@@H](CC(=O)O)C(=O)N[C@@H](CO)C(=O)N[C@@H](C)C(=O)N[C@@H](CC(=O)O)C(=O)N[C@@H](C)C(=O)N[C@@H](CCC(=O)O)C(=O)N[C@@H](CCC(=O)O)C(=O)N[C@@H](CC(=O)O)C(=O)N[C@@H](CC(=O)O)C(=O)N[C@@H](CO)C(=O)N[C@@H](CC(=O)O)C(=O)N[C@H](C(=O)N[C@@H](Cc1c[nH]c2ccccc12)C(=O)N[C@@H](Cc1c[nH]c2ccccc12)C(=O)NCC(N)=O)C(C)C [Peptide 11] (Ac-DSADAEEDDSDVWWG-NH2)

- Ki [6]: 54 ± 2 nM
SMILES: CC[C@H](C)[C@H](NC(=O)[C@H](Cc1ccccc1)NC(=O)[C@H](CCC(=O)O)NC(=O)[C@@H](NC(=O)[C@H](CCC(=O)O)NC(C)=O)[C@@H](C)O)C(=O)N[C@@H](C)C(=O)N[C@@H](Cc1c[nH]c2ccccc12)C(=O)NCC(=O)N1CCC[C@H]1C(=O)N[C@H](C(=O)NCC(=O)N[C@@H](CC(=O)O)C(=O)N[C@@H](CCCNC(=N)N)C(=O)N[C@@H](CC(=O)O)C(N)=O)[C@@H](C)O (Ac-ETEFIAWGPTGDRD-NH2)

- Ki [5]: 579 ± 21 nM
SMILES: CC[C@H](C)[C@H](NC(=O)[C@H](C)NC(=O)[C@H](Cc1c[nH]c2ccccc12)NC(=O)[C@@H]1CCCN1C(C)=O)C(=O)N[C@H](C(=O)N[C@@H](Cc1c[nH]c2ccccc12)C(=O)NCC(=O)N1CCC[C@H]1C(=O)N[C@H](C(=O)N[C@H](C(=O)N[C@@H](CO)C(=O)N[C@@H](CCCNC(=N)N)C(=O)N[C@@H](CCC(=O)O)C(=O)N[C@@H](CC(=O)O)C(=O)NCC(=O)NCC(=O)N[C@@H](CC(=O)O)C(=O)N1CCC[C@H]1C(=O)N[C@@H](CC(N)=O)C(N)=O)C(C)C)[C@@H](C)O)C(C)C (Ac-PWAIVWGPTVSREDGGDPN-NH2)

- Ki (Table 8, Ala-, D-amino acids and N-methylation scans of AJAP-1WT, read-out: Ki (nM) mean ± SEM): 89 ± 2 nM
SMILES: CC[C@H](C)[C@H](NC(=O)[C@H](Cc1ccccc1)NC(=O)[C@H](CCC(=O)O)NC(=O)[C@@H](NC(=O)[C@H](CCC(=O)O)NC(C)=O)[C@@H](C)O)C(=O)N[C@@H](C)C(=O)N[C@@H](Cc1c[nH]c2ccccc12)C(=O)NCC(=O)N1CCC[C@H]1C(=O)N[C@@H](C)C(=O)NCC(=O)N[C@@H](CC(=O)O)C(=O)N[C@@H](CCC(=O)O)C(=O)N[C@@H](CC(=O)O)C(N)=O [ETEFIAWGPAGDED] (Ac-ETEFIAWGPAGDED-NH2)

- Ki [2]: 138 ± 5 nM
SMILES: CC(=O)N[C@@H](CCC(=O)O)C(=O)N[C@@H](CC(=O)O)C(=O)N[C@@H](CC(=O)O)C(=O)N[C@@H](CO)C(=O)N[C@@H](CC(=O)O)C(=O)N[C@H](C(=O)N[C@@H](Cc1c[nH]c2ccccc12)C(=O)N[C@@H](Cc1c[nH]c2ccccc12)C(=O)N[C@@H](Cc1ccc(O)cc1)C(=O)NCC(=O)N(C)CC(=O)N[C@H](C(=O)NCC(=O)N[C@@H](CC(=O)O)C(=O)N[C@@H](CCC(=O)O)C(=O)N[C@@H](CC(=O)O)C(N)=O)[C@@H](C)O)C(C)C (Ac-EDDSDVWWYG[Sar]TGDED-NH2)

SMILES: CC[C@H](C)[C@H](NC(=O)[C@H](Cc1c[nH]c2ccccc12)NC(=O)[C@H](CC(=O)O)NC(=O)[C@H](CC(=O)O)NC(=O)[C@H](CC(=O)O)NC(=O)[C@H](CCC(=O)O)NC(=O)[C@H](CCCNC(=N)N)NC(=O)[C@H](CCCNC(=N)N)NC(=O)[C@H](CCCNC(=N)N)NC(=O)[C@H](CCC(N)=O)NC(=O)[C@H](CCCNC(=N)N)NC(=O)[C@H](CCCNC(=N)N)NC(=O)[C@H](CCCCN)NC(=O)[C@H](CCCCN)NC(=O)[C@H](CCCNC(=N)N)NC(=O)CNC(=O)[C@H](Cc1ccc(O)cc1)NC(C)=O)C(=O)N[C@@H](CC(=O)O)C(=O)N[C@@H](Cc1c[nH]c2ccccc12)C(=O)N[C@@H](Cc1ccc(O)cc1)C(=O)N[C@@H](CC(=O)O)C(=O)N[C@@H](CO)C(=O)N[C@@H](CC(=O)O)C(=O)N[C@@H](CC(=O)O)C(=O)N[C@@H](CC(=O)O)C(N)=O [Tat-16] (Ac-YGRKKRRQRRREDDDWIDWYDSDDD-NH2)
- Ki [3]: 83 ± 1 nM
- Ki [4]: 83.4 ± 1 nM

- Ki [4]: 32 ± 1 nM
SMILES: CC[C@H](C)[C@H](NC(=O)[C@H](Cc1c[nH]c2ccccc12)NC(=O)[C@H](CC(=O)O)NC(=O)[C@H](CC(=O)O)NC(=O)[C@H](CC(=O)O)NC(=O)[C@H](CCC(=O)O)NC(=O)[C@H](CCCNC(=N)N)NC(=O)[C@H](CCCNC(=N)N)NC(=O)[C@H](CCCNC(=N)N)NC(=O)[C@H](CCCNC(=N)N)NC(=O)[C@H](CCCNC(=N)N)NC(C)=O)C(=O)N[C@@H](CC(=O)O)C(=O)N[C@@H](Cc1c[nH]c2ccccc12)C(=O)NCC(=O)N1CCC[C@H]1C(=O)N[C@H](C(=O)N[C@@H](CO)C(=O)N[C@@H](CC(=O)O)C(=O)N[C@@H](CC(=O)O)C(=O)N[C@@H](CC(=O)O)C(N)=O)[C@@H](C)O (Ac-RRRRREDDDWIDWGPTSDDD-NH2)

- Ki [1]: 11 ± 0.1 nM
- Ki [2]: 11 ± 0.1 nM
SMILES: CC[C@H](C)[C@H](NC(=O)[C@H](Cc1c[nH]c2ccccc12)NC(=O)[C@H](CO)NC(=O)[C@H](CC(=O)O)NC(=O)[C@H](CC(=O)O)NC(=O)[C@H](CCC(=O)O)NC(C)=O)C(=O)N[C@@H](CC(=O)O)C(=O)N[C@@H](Cc1c[nH]c2ccccc12)C(=O)N[C@@H](Cc1ccc(O)cc1)C(=O)NCC(=O)N[C@@H](C)C(=O)N[C@@H](CC(=O)O)C(=O)N[C@H](C(=O)N[C@@H](CC(=O)O)C(N)=O)[C@@H](C)O [Peptide 30] (Ac-EDDSWIDWYGADTD-NH2)

- Ki [7]: 906 ± 20 nM
SMILES: CC[C@H](C)[C@H](NC(=O)[C@H](C)NC(=O)[C@H](CO)NC(=O)[C@@H]1CCCN1C(C)=O)C(=O)N[C@H](C(=O)N[C@@H](Cc1c[nH]c2ccccc12)C(=O)NCC(=O)N1CCC[C@H]1C(=O)N[C@H](C(=O)N[C@H](C(=O)N[C@@H](CO)C(=O)N[C@@H](CCCNC(=N)N)C(=O)N[C@@H](CCC(=O)O)C(=O)N[C@@H](CC(=O)O)C(N)=O)C(C)C)[C@@H](C)O)C(C)C [PSAIVWGPTVSRED] (Ac-PSAIVWGPTVSRED-NH2)

- Ki (Table 4, truncation and elongation scans of APP epitope, read-out: Ki (nM) mean ± SEM): 247 ± 7 nM
SMILES: CC(=O)N[C@@H](CC(=O)O)C(=O)N[C@@H](C)C(=O)N[C@@H](CCC(=O)O)C(=O)N[C@@H](CCC(=O)O)C(=O)N[C@@H](CC(=O)O)C(=O)N[C@@H](CC(=O)O)C(=O)N[C@@H](CO)C(=O)N[C@@H](CC(=O)O)C(=O)N[C@H](C(=O)N[C@@H](Cc1c[nH]c2ccccc12)C(=O)N[C@@H](Cc1c[nH]c2ccccc12)C(=O)NCC(=O)NCC(=O)N[C@@H](C)C(=O)N[C@@H](CC(=O)O)C(=O)N[C@H](C(=O)N[C@@H](CC(=O)O)C(=O)N[C@@H](Cc1ccc(O)cc1)C(=O)N[C@@H](C)C(=O)N[C@@H](CC(=O)O)C(N)=O)[C@@H](C)O)C(C)C (Ac-DAEEDDSDVWWGGADTDYAD-NH2)

- Ki [6]: 34 ± 1 nM
SMILES: CC[C@H](C)[C@H](NC(=O)[C@H](Cc1ccccc1)NC(=O)[C@H](CO)NC(=O)[C@@H](NC(=O)[C@H](CCC(=O)O)NC(C)=O)[C@@H](C)O)C(=O)N[C@@H](C)C(=O)N[C@@H](Cc1c[nH]c2ccccc12)C(=O)NCC(=O)N1CCC[C@H]1C(=O)N[C@H](C(=O)NCC(=O)N[C@@H](CC(=O)O)C(=O)N[C@@H](CCC(=O)O)C(=O)N[C@@H](CC(=O)O)C(N)=O)[C@@H](C)O [ETSFIAWGPTGDED] (Ac-ETSFIAWGPTGDED-NH2)

- Ki [7]: 339 ± 8 nM
SMILES: CC[C@H](C)[C@H](NC(=O)[C@H](Cc1c[nH]c2ccccc12)NC(=O)[C@@H]1CCCN1C(C)=O)C(=O)N[C@H](C(=O)N[C@H](C(=O)N[C@@H](Cc1c[nH]c2ccccc12)C(=O)NCC(=O)N1CCC[C@H]1C(=O)N[C@H](C(=O)N[C@H](C(=O)N[C@@H](CO)C(=O)N[C@@H](CCCNC(=N)N)C(=O)N[C@@H](CCC(=O)O)C(=O)N[C@@H](CC(=O)O)C(N)=O)C(C)C)[C@@H](C)O)C(C)C)[C@@H](C)CC [PWIIVWGPTVSRED]
